Test results as given in patent US20070238700A1, “N-PHENYL-1,1,1-TRIFLUOROMETHANESULFONAMIDE HYDRAZONE DERIVATIVE COMPOUNDS AND THEIR USAGE IN CONTROLLING PARASITES” (priority 2006, published 2007).
Like-named read-outs stand apart in the source and are kept apart here.

How the values were obtained:
Rhipicephalus sanguineus = assay: Rapid screening protocol for topical application on brown dog ticks (% mortality)
Procedure: d) Rapid Screening Protocol for Topical Application on Brown Dog Ticks (Rhipicephalus sanguineus)
The aim of the test was to determine the presence of significant acaricidal activity in sample compounds or formulations when applied topically on brown dog ticks. A tick was defined as dead if it gave no apparent response when touched lightly and observed for 1 minute. To assess the experimental compound for acaricidal activity, a single dose level was chosen based on known results from previous experiments with a commercially available active reference compound. Both permethrin and fipronil were employed as reference compounds. The insect species tested was the Brown Dog Tick (Rhipicephalus sanguineus). Mixed sex adult ticks were used for tests. The strain used was cultured by von Berky Veterinary Services, Woody Point, QLD, AU and supplied as unfed adult ticks (mixed sex). Ticks were maintained in controlled conditions (temp. 18°±2° C., humidity 75±5% RH).
Test compounds (formulations or active ingredients) were stored in a refrigerator (5±1° C.) unless otherwise specified. Temperature was maintained at 25±1° C. and the humidity was ambient. The screening dose chosen was higher than that known to kill 90% of insects (LD90) using the reference compound. In the case of topical application of active compounds on adult ticks, the reference compound was fipronil and the dose chosen was 10 μg of active per tick (=10 μg of fipronil/1 μl of acetone). Ticks were each treated on the abdomen with 1 μL of a single dose level of test sample in acetone; ten ticks were treated with solvent only (acetone) in each test. Tests were replicated 4 times (total of 40 ticks treated). Ticks were held in recovery containers maintained under appropriate rearing conditions for 24 hours. Mortality resulting from the treatments was recorded at 24 hours. Pooled 24 hour mortality data were converted to percentages.

Ctenocephalides felis = tested on: Ctenocephalides felis
Method in brief: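 Adult cat fleas (3–7 days post-emergence), 15 per flask in ≥4 replicates, exposed to a dried acetone residue at 1.26 μg/cm^2 on a Coatasil-treated glass flask base. Held at 25±1° C, 75±5% humidity; mortality (immobile or unable to right) scored at 8, 24 and/or 48 h.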

Compound | R. sanguineus Mortality (%) 24 h (Rhipicephalus sanguineus; data from laboratory 1) | C. felis Mortality (%) 8 h (Ctenocephalides felis) | C. felis Mortality (%) 24 h (Ctenocephalides felis) | R. sanguineus Mortality (%) 24 h (Rhipicephalus sanguineus; data from laboratory 2) | C. felis Mortality (%) 48 h (Ctenocephalides felis) | C. felis Mortality (%) 8 h (Ctenocephalides felis; 8 h, data from laboratory 1) | C. felis Mortality (%) 24 h (Ctenocephalides felis; 24 h, data from laboratory 1)
CC(=NN(Cc1ccccc1)c1ccccc1)c1cc(Cl)ccc1NS(=O)(=O)C(F)(F)F [Compound 22] | 33^A % | 98% | 100% |  |  |  | 
CCC(=NN(Cc1ccccc1)c1ccccc1)c1cc(Cl)ccc1NS(=O)(=O)C(F)(F)F [Compound 24] | 28^A % | 100% | 100% |  |  |  | 
CC(=NN(c1ccccc1)C(C)C)c1cc(Cl)ccc1NS(=O)(=O)C(F)(F)F [Compound 28] |  |  | 100% | 68% | 100% |  | 
CC(=NN(c1ccc(Cl)cc1)C(C)C)c1cc(Cl)ccc1NS(=O)(=O)C(F)(F)F [Compound 33] |  |  | 86% | 88% | 100% |  | 
CCN(N=C(C)c1cc(Cl)ccc1NS(=O)(=O)C(F)(F)F)c1ccccc1Cl [Compound 37] |  |  | 89% | 83% | 100% |  | 
CCN(N=C(C)c1cc(Cl)ccc1N(C)S(=O)(=O)C(F)(F)F)c1ccccc1F [Compound 44] |  |  | 3% | 3% | 22% |  | 
CC(=NN(c1ccc(C(F)(F)F)cc1)C(C)C)c1cc(Cl)ccc1NS(=O)(=O)C(F)(F)F [Compound 47] |  | 14% | 100% | 58% |  |  | 
CC(=NN(c1cccc(Cl)c1)C(C)C)c1cc(Cl)ccc1NS(=O)(=O)C(F)(F)F [Compound 50] |  | 61% | 100% | 68% |  |  | 
CCCN(N=C(C)c1cc(Cl)ccc1NS(=O)(=O)C(F)(F)F)c1ccc(Br)cc1 [Compound 53] |  | 71% | 100% | 50% |  |  | 
CC(=NN(c1ccccc1Cl)C(C)C)c1cc(Cl)ccc1NS(=O)(=O)C(F)(F)F [Compound 56] |  | 51% | 99% | 45% |  |  | 
CC(=NN(C)c1ccc(C(F)(F)F)cc1)c1cc(Cl)ccc1NS(=O)(=O)C(F)(F)F [Compound 65, N-[2-[1-(N′-methyl-(4-trifluoromethyl)phenyl)hydrazono]-ethyl-4-chlorophenyl]-trifluoromethanesulfonamide] |  | 100% | 100% | 100% |  |  | 
CC(=NN(c1cccc(Cl)c1Cl)C(C)C)c1cc(Cl)ccc1NS(=O)(=O)C(F)(F)F [Compound 66] |  | 18% | 100% | 48% |  |  | 
CC(=NN(c1cccc(F)c1)C(C)C)c1cc(Cl)ccc1NS(=O)(=O)C(F)(F)F [Compound 77] |  | 91% | 100% | 73% |  |  | 
CCCN(N=C(C)c1cc(Cl)ccc1NS(=O)(=O)C(F)(F)F)c1ccc(Cl)c(Cl)c1 [Compound 97] |  | 52% | 100% | 73% |  |  | 
CCCN(N=C(C)c1cc(Cl)ccc1NS(=O)(=O)C(F)(F)F)c1cc(Cl)cc(Cl)c1 [Compound 98] |  | 19% | 98% | 60% |  |  | 
CCCN(N=C(C)c1cc(Cl)ccc1NS(=O)(=O)C(F)(F)F)c1c(Cl)cccc1Cl [Compound 103] |  | 56% | 100% | 40% |  |  | 
CCCN(N=C(C)c1cc(Cl)ccc1NS(=O)(=O)C(F)(F)F)c1ccc(F)cc1 [Compound 104] |  | 16% | 100% | 75% |  |  | 
CC(=NN(C)c1ccccc1)c1cc(Cl)ccc1N(C)S(=O)(=O)C(F)(F)F [Compound 109, N-[2-[1-(N′-methyl-N′-phenyl)hydrazono]ethyl-4-chlorophenyl]-N-methyl-trifluoromethanesulfonamide] |  | 73% | 100% | 8% |  |  | 
CCOCN(c1ccc(Cl)cc1C(C)=NN(C)c1ccccc1)S(=O)(=O)C(F)(F)F [Compound 112] |  | 99% | 100% | 5% |  |  | 
CC(=NN(C)c1ccccc1)c1ccc(C(F)(F)F)cc1NS(=O)(=O)C(F)(F)F [Compound 120, N-[2-[1-(N′-methyl-N′-phenyl)hydrazono]-ethyl-5-trifluoromethylphenyl]-trifluoromethanesulfonamide] |  | 28% | 83% | 58% |  |  | 
CC(=NN(C)C)c1ccccc1NS(=O)(=O)C(F)(F)F [Compound 124] |  | 59% | 94% | 88% |  |  | 
CCC(=NN1CCCCCC1)c1cc(Cl)ccc1NS(=O)(=O)C(F)(F)F [Compound 131] |  | 43% | 100% | 98% |  |  | 
C/C(=N\N(CCC#N)C(=O)C(C)C)c1cc(Cl)ccc1NS(=O)(=O)C(F)(F)F [Compound 223] |  | 45% | 100% | 100% |  |  | 
O=S(=O)(Nc1ccc(Cl)cc1C1=NN(c2ccc(Cl)cc2)CC1)C(F)(F)F [Compound 234] |  |  |  |  |  | 14% | 41%
